Experimental data published in patent US11883434B2, “Extracellular vesicles and methods of using” (NUtech Ventures, priority 2017, dated 2024).

Legend:
[1] = system: human umbilical vein endothelial cells (HUVEC); test: Uptake of fluorophore-labeled milk exosomes into HUVECs; assay type: cell-based; settings: for effect on exosome uptake in HUVEC cells: inhibitors or 150 mmol/L carbohydrate competitors
[2] = system: human macrophage U937 cells; test: Uptake of milk exosomes into U937 cells; assay type: cell-based; settings: exosomes treated with the labelled agent
[3] = system: human small intestinal cells (FHs cells); test: Uptake of milk exosomes into FH cells (protease, glycosidase, lectin, sonication); assay type: cell-based
[4] = system: human colon carcinoma Caco-2 cells; assay type: cell-based
Description: Caco-2 cells and IEC-6 cells were seeded at a density of 20,000 and 7000 cells/well, respectively, in 96-well plates, and allowed to adhere for 48 h, when cells were 75% confluent. The exosomes were labeled with the fluorophore, FM 4-64 (Molecular Probes). One microliter of a stock solution of FM 4-64 (5.9 mmol/L) was added to 1 mL of exosome suspension and incubated for 15 min at 37° C., and excess FM 4-64 was removed by ultracentrifugation at 120,000 3 g at 4° C. for 90 min. […] Assays were calibrated by quantifying the fluorescence of a known mass of exosomes labeled with FM 4-64. Exosome uptake was analyzed by measuring the cell fluorescence at 515 (excitation) and 640 nm (emission) using a Biotek FLx800 plate reader (BioTek Instru-ments). Fluorescence readings were corrected for cell autofluorescence by subtracting signals measured in cells incubated with exosome-depleted media. […] In Caco-2 cells, exosome uptake was linear for up to 120 min if transport was measured using nonsaturating substrate concentrations (FIG. 33A): y=0.0012x+0.014 (r2=0.97; P<0.05). In IEC-6 cells exosome uptake was linear for only up to 60 min if transport was measured using nonsaturating substrate concentrations (FIG. 33B): y=0.0033x+0.033 (r2=0.75; P<0.05). […]

Caco-2 cells = assay type: in vitro ADME, human
Description: In transwell studies Caco-2 cells were seeded at a density of 9000 cells/well with […] of media in 96-well polycarbonate plates with a pore size of […] (EMD Millipore). The cells were allowed to grow a differentiated monolayer for 21-24 d (33). Caco-2 cell monolayer integrity was formally confirmed using the Lucifer yellow (LY) rejection assay according to the manufacturer's instructions (33). LY fluorescence was measured in the transwell apical and basolateral chambers after 1 h of incubation at 37° C. In parallel experiments, Caco-2 cells were cultured in exosome-depleted media to which milk exosomes were added back to produce a concentration of 275 mg/100 mL exosomal protein in either the upper, apical chamber or the lower, basolateral chamber. Controls were cultured in exosome-depleted media. Aliquots of media were collected from the upper chamber and bottom chamber after 2 h of incubation for analysis of microRNAs. Twenty-five attomoles of internal standard (miSPIKE Synthetic RNA; IDT Technologies) was added to samples before microRNA extraction and subsequent analysis of miR-29b and miR-200c in transwell chambers by quantitative real-time PCR and microRNA-specific primers; miSpike was also used for PCR calibration. Values were corrected for the internal standard to normalize for extraction efficiency.

HUVEC = test: Cell death (MTT viability) assay with puromycin-loaded exosomes; assay type: cell-based, human; settings: 1,837 μM puromycin added directly to media, 24 h
Description: The possibility that adherence to cells, rather than uptake into cells, accounted for cell fluorescence was dismissed based on the following cell death-based and enhanced green fluorescent protein (eGFP) protocols. Milk exosomes were suspended in BTXpress electroporation buffer (BTX, Holliston, MA; final concentration 100 […]), containing zero (negative control), 56 μM, or 223 μM puromycin in a 4-mm electroporation cuvette. Exosomes were loaded with puromycin or with a mammalian eGFP expression plasmid by electroporation in a Gene Pulser Xcell electroporator (Bio-Rad) using 250 V, 950 μF, and infinite resistance. Extra-exosomal puromycin was removed by ultracentrifugation and washing, and exosomes were resuspended in 300 μl of exosome-depleted cell culture media. In cell death assays, 100 μl of the suspension were added per well in a 96-well cell culture plate (containing ˜200 μl of media) and cells were cultured for 24 h, when viability was assessed using the MTT assay. Positive controls were created by adding puromycin directly to the media without encapsulation in exosomes, thereby producing a concentration of 1,837 μM puromycin. In eGFP assays, cells were cultured in media in which eGFP-loaded milk exosomes were substituted for exosomes in fetal bovine serum. Expression of eGFP was assessed by using confocal microscopy 3 days after initiation of cultures.

[5] = FH cells treated with the labelled agent
[6] = exosomes treated with the labelled agent

| Compound | effect on exosome uptake in HUVEC cells [1] | effect on exosome uptake in FH cells [3, 5] | effect on exosome uptake in FH cells [3, 6] | also measured |
| --- | --- | --- | --- | --- |
| O=C[C@H](O)[C@@H](O)[C@@H](O)[C@H](O)CO [D-galactose] | significant decrease in exosome uptake | – | – | – |
| β-galactosidase | – | decrease in exosome uptake | decrease in exosome uptake | effect on exosome uptake in U937 cells [2]: decrease in exosome uptake |
| Glu-C: Serine protease cleaving at glutamic acid and aspartic acid | – | – | – | effect on exosome uptake in Caco-2 cells ([4]; Caco-2): significant decrease in exosome transport; transport rates (Vmax) ([4]; exosomes treated with the labelled protease, intestinal transport): 19±0.3 arbitrary units |
| PHA-E: Lectin binding terminal galactose, N-acetylglucosamine and mannose residues of complex glycans | – | decreases the uptake | decreases the uptake | – |
| C[C@H]1CCC/C=C/[C@@H]2C[C@H](O)C[C@H]2[C@H](O)/C=C/C(=O)O1 [BFA, brefeldin A] | decrease in exosome uptake | – | – | – |
| Lucifer yellow | – | – | – | rejection rate (Caco-2 cells): 99.8% |
| C=C1[C@@H](C)[C@H]2[C@H](Cc3ccccc3)NC(=O)[C@]23[C@H](OC(C)=O)/C=C/[C@@](C)(O)C(=O)[C@@H](C)C/C=C/[C@H]3[C@@H]1O [cytochalasin D] | decrease in exosome uptake | – | – | decrease of exosome transport compared with controls ([1]; HUVEC, exosomes treated with proteinase K, or transport in presence of the labelled agent): 50%; exosome uptake ([1]; cells treated with 5 μg/ml cytochalasin D): 63.5±21.3 % of controls; exosome uptake ([1]; cells treated with 10 μg/ml cytochalasin D): 40.8±22.0 % of controls |
| SBA: Lectin binding terminal N-acetylgalactosamine and galactopyranosyl residues | – | decreases the uptake | decreases the uptake | – |
| COc1ccc(C[C@H](N)C(=O)N[C@H]2[C@@H](O)[C@H](n3cnc4c(N(C)C)ncnc43)O[C@@H]2CO)cc1 [puromycin] | – | – | – | viability (HUVEC): 37 % of puromycin-free controls |
